How the values were obtained:
PAK5 = PAK5 (Homo sapiens, UniProt Q9P286); assay: KinaseProfiler Assay
PKBβ = PKBβ (Homo sapiens, UniProt P31751); assay: KinaseProfiler Assay
3T3-L1 adipocytes = assay: Lipogenesis in 3T3-L1 adipocytes (Oil Red O / BODIPY); assay type: cell-based, murine; settings: relative to solvent and positive controls
Method: Prior to experiments, cells were cultured in DMEM containing 10% FBS-HI added 50 units penicillin/ml and 50 μg streptomycin/ml, and maintained in log phase prior to experimental setup. Cells were grown in a 5% CO2 humidified incubator at 37° C. Components of the pre-confluent medium included (1) 10% FBS/DMEM containing 4.5 g glucose/L; (2) 50 U/ml penicillin; and (3) 50 μg/ml streptomycin. Growth medium was made by adding 50 ml of heat inactivated FBS and 5 ml of penicillin/streptomycin to 500 ml DMEM. This medium was stored at 4° C. Before use, the medium was warmed to 37° C. in a water bath.
3T3-T1 cells were seeded at an initial density of 6×10^4 cells/cm^2 in 24-well plates. For two days, the cells were allowed grow to reach confluence. Following confluence, the cells were forced to differentiate into adipocytes by the addition of differentiation medium; this medium consisted of (1) 10% FBS/DMEM (high glucose); (2) 0.5 mM methylisobutylxanthine; (3) 0.5 μM dexamethasone and (4) 10 μg/ml insulin (MDI medium). After three days, the medium was changed to post-differentiation medium consisting of 10 μg/ml insulin in 10% FBS/DMEM.
Whenever fresh media were added, fresh test material was also added.
Oil Red 0 Staining—Triglyceride content of D6/D7-differentiated 3T3-L1 cells was estimated with Oil Red 0 according to the method of Kasturi and Joshi [Kasturi, R. and Joshi, V. C. […] Monolayer cells were washed with PBS (phosphate buffered saline, Mediatech) and fixed with 10% formaldehyde for ten minutes. Fixed cells were stained with an Oil Red 0 working solution of three parts 0.6% Oil Red O/isopropanol stock solution and two parts water for one hour and the excess stain was washed once with water. The resulting stained oil droplets were extracted from the cells with isopropanol and quantified by spectrophotometric analysis at 540 nm (MEL312e BIO-KINETICS READER, Bio-Tek Instruments, Winooski, Vt.).
Briefly, media were removed and cells were washed once with non-sterile PBS. A stock 1000× BODIPY/DMSO solution was made by dissolving 1 mg BODIPY in 1 ml DMSO (1,000 μg BODIPY/ml). […] One-hundred μl of this working solution (1 μg BODIPY) was added to each well of a 96-well microtiter plate. After 15 min on an orbital shaker (DS-500, VWR Scientific Products, South Plainfield, N.J.) at ambient temperature, the cells were washed with 100 μl PBS followed by the addition of 100 μl PBS for reading for spectrofluorometric determination of BODIPY incorporation into the cells.
Nonpolar lipid incorporation was represented relative to the nonpolar lipid accumulation of fully differentiated cells in the solvent controls.

Lyn = assay: KinaseProfiler Assay
CDK1/cyclinB = CDK1/cyclinB (Homo sapiens, UniProt P06493); assay: KinaseProfiler Assay
AMPK = assay: KinaseProfiler Assay
CK1γ3 = CK1γ3 (Homo sapiens, UniProt Q9Y6M4); assay: KinaseProfiler Assay
Fes = Fes (Homo sapiens, UniProt P07332); assay: KinaseProfiler Assay
ZIPK = ZIPK (Homo sapiens, UniProt O43293); assay: KinaseProfiler Assay
Syk = Syk (Homo sapiens, UniProt P43405); assay: KinaseProfiler Assay
DAPK2 = DAPK2 (Homo sapiens, UniProt Q9UIK4); assay: KinaseProfiler Assay
CDK5/p35 = CDK5/p35 (Homo sapiens, UniProt Q00535); assay: KinaseProfiler Assay
Pim-2 = Pim-2 (Homo sapiens, UniProt Q9P1W9); assay: KinaseProfiler Assay
p70S6K = p70S6K (Homo sapiens, UniProt P23443); assay: KinaseProfiler Assay
CK1δ = CK1δ (Homo sapiens, UniProt P48730); assay: KinaseProfiler Assay
Fyn = Fyn (Homo sapiens, UniProt P06241); assay: KinaseProfiler Assay
Fer = Fer (Homo sapiens, UniProt P16591); assay: KinaseProfiler Assay
CK1(y) = assay: KinaseProfiler Assay
IRAK1 = IRAK1 (Homo sapiens, UniProt P51617); assay: KinaseProfiler Assay
GSK3β = GSK3β (Homo sapiens, UniProt P49841); assay: KinaseProfiler Assay
PhKγ2 = biological target: T1, PhKγ2 (Homo sapiens, UniProt P15735); assay: KinaseProfiler Assay
T1 sequence (P15735 1-406): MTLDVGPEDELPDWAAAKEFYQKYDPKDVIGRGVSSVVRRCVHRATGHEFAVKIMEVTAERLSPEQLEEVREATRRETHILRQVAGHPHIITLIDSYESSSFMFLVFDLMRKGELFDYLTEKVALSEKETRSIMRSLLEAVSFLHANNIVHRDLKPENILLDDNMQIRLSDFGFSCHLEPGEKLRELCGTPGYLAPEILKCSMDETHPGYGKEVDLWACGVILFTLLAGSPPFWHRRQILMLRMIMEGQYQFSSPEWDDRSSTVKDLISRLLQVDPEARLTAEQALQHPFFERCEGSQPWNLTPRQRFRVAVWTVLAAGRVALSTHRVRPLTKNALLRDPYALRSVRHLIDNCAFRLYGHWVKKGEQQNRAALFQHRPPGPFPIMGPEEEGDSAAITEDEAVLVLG

cSRC = cSRC (Homo sapiens, UniProt P12931); assay: KinaseProfiler Assay

IRAK1, sequence (P51617 whole entry): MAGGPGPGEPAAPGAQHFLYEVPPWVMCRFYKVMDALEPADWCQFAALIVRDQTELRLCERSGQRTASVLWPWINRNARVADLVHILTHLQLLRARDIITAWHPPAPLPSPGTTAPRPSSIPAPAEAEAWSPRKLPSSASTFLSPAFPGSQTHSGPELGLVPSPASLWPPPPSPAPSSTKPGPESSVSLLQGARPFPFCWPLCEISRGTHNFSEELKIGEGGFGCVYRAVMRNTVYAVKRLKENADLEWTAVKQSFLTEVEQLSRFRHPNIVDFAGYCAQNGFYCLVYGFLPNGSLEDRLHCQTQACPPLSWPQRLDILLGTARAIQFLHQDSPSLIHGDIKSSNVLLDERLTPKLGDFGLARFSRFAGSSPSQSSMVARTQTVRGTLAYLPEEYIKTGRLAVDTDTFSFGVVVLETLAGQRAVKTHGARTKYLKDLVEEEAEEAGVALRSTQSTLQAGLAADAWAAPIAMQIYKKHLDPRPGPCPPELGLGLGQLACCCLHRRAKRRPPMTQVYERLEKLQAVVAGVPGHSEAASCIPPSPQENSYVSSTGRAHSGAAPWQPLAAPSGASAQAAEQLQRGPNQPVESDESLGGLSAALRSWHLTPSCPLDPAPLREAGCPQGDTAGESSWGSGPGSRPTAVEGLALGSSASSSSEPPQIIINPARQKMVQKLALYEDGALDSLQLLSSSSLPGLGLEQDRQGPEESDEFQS
PAK5, sequence (Q9P286 whole entry): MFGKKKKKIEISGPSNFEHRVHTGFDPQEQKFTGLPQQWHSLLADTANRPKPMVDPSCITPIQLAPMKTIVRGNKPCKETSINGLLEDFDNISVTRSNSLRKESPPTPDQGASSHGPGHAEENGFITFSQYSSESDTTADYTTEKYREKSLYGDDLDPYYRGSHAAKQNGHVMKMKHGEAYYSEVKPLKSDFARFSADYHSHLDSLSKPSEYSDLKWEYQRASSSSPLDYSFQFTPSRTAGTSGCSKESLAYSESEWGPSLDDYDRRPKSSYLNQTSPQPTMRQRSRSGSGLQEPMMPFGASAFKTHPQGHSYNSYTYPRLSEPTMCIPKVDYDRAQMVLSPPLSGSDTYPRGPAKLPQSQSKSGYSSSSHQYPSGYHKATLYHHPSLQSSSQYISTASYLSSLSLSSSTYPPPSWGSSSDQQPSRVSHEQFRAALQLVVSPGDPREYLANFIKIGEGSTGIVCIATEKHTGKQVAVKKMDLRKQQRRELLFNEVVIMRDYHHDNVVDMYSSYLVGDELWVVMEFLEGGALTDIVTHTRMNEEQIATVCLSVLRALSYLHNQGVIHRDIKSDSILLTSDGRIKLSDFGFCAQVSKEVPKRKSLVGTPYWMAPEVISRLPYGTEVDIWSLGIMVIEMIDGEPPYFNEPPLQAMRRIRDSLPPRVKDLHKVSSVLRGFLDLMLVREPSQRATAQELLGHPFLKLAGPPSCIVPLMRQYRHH
CK1δ, sequence (P48730 whole entry): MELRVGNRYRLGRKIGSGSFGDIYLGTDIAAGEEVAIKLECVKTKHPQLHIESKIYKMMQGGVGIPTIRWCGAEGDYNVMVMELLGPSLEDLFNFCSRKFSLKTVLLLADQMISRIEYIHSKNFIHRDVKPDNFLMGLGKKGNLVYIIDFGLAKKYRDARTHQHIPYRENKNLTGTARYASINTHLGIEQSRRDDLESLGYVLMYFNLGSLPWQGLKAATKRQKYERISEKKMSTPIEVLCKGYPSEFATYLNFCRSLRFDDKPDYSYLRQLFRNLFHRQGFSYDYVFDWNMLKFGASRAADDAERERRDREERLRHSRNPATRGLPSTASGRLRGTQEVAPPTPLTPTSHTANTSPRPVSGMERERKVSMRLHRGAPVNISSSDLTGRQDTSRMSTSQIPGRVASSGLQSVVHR
Fer, sequence (P16591 whole entry): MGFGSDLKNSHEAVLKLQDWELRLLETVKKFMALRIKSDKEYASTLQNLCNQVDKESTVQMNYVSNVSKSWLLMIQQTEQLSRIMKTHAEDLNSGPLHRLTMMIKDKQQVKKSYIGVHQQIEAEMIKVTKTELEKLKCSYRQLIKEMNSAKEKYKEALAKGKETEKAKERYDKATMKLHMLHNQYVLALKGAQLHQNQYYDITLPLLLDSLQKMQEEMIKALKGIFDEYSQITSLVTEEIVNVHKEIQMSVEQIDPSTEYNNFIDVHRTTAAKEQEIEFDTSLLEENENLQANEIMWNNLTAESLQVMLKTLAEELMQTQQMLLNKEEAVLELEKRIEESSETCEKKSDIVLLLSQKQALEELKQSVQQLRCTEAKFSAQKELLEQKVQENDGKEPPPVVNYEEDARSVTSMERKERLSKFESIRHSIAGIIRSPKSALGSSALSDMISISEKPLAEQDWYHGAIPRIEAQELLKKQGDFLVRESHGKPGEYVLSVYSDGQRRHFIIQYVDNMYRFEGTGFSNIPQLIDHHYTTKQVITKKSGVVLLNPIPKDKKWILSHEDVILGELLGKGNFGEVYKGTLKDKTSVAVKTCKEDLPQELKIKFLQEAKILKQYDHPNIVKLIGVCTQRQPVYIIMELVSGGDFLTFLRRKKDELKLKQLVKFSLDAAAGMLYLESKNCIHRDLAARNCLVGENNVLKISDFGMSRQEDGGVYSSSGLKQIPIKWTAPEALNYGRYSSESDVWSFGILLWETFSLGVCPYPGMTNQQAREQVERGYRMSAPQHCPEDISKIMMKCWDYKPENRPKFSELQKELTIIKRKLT
Fyn, sequence (P06241 whole entry): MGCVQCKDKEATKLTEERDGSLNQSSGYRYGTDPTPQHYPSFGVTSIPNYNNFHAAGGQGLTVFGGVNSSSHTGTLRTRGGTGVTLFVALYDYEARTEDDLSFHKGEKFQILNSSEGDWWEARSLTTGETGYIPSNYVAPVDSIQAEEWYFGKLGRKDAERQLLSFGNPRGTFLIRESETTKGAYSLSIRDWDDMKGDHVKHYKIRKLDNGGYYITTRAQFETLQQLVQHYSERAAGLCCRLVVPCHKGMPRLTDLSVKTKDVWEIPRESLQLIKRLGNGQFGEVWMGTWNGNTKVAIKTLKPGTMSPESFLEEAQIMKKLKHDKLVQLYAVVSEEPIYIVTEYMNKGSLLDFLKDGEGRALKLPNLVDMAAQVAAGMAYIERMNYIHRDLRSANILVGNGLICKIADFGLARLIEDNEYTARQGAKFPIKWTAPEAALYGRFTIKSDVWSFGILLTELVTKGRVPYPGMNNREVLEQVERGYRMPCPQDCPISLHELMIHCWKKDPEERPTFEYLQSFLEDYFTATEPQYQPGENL
Fes, sequence (P07332 whole entry): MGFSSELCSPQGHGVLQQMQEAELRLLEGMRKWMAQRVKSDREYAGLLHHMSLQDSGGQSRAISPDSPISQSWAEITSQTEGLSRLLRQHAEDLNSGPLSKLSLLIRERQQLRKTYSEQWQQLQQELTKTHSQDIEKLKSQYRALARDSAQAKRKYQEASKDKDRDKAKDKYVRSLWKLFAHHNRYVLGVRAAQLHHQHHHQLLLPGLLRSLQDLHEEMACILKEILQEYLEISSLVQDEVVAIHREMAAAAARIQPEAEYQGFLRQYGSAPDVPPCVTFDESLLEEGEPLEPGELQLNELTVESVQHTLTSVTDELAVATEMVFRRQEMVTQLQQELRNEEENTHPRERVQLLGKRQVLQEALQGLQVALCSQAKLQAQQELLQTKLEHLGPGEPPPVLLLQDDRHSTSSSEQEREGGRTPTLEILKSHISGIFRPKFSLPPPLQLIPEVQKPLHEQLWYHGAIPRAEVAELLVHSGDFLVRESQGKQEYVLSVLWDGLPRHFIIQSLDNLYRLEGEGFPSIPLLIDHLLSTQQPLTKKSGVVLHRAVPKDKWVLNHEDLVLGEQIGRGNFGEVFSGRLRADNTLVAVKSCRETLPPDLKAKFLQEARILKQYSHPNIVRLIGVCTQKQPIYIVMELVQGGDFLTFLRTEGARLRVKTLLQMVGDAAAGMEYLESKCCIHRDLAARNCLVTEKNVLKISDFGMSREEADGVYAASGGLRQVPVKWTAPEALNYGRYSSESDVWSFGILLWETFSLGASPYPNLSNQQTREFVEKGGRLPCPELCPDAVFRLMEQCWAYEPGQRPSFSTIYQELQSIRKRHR
CDK1/cyclinB, sequence (P06493 whole entry): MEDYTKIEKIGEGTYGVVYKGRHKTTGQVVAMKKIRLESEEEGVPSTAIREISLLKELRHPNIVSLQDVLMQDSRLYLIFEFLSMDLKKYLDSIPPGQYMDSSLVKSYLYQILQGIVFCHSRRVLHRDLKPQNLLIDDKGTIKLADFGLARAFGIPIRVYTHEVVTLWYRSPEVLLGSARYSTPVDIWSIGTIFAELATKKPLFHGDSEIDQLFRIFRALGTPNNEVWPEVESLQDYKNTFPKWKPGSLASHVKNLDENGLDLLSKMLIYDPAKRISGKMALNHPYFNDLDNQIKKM
CDK1/cyclinB, sequence (P14635 whole entry partner): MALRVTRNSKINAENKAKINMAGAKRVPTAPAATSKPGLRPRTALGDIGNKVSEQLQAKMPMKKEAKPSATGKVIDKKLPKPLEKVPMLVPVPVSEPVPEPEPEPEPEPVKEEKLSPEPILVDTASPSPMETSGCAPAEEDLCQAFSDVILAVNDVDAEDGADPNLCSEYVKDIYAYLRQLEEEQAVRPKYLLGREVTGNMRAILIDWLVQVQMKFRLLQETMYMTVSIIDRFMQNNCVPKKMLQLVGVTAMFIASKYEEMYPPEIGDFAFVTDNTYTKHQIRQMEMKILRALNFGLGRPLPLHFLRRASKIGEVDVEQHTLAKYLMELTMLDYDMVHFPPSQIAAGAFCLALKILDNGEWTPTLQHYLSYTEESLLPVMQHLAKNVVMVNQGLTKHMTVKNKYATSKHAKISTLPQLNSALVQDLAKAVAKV

## COc1cc(O)c(CC=C(C)C)c(O)c1C(=O)/C=C/c1ccc(O)cc1 [Xanthohumol, xanthohumol]
PAK5; 1 ug/ml
  Kinase activity, % of Control: 106 % of Control
PAK5; 5 ug/ml
  Kinase activity, % of Control: 99 % of Control
PAK5; 25 ug/ml
  Kinase activity, % of Control: 42 % of Control
PAK5; 50 ug/ml
  Kinase activity, % of Control: 5 % of Control
PKBβ; 1 ug/ml
  Kinase activity, % of Control: 146 % of Control
PKBβ; 5 ug/ml
  Kinase activity, % of Control: 102 % of Control
PKBβ; 25 ug/ml
  Kinase activity, % of Control: 1 % of Control
PKBβ; 50 ug/ml
  Kinase activity, % of Control: 8 % of Control
3T3-L1 adipocytes
  adipogenic / lipogenic response: comparable to indomethacin and troglitazone
Lyn; 1 ug/ml
  Kinase activity, % of Control: 97 % of Control
Lyn; 5 ug/ml
  Kinase activity, % of Control: 40 % of Control
Lyn; 25 ug/ml
  Kinase activity, % of Control: 4 % of Control
Lyn; 50 ug/ml
  Kinase activity, % of Control: 2 % of Control
CDK1/cyclinB; 1 ug/ml
  Kinase activity, % of Control: 118 % of Control
CDK1/cyclinB; 5 ug/ml
  Kinase activity, % of Control: 103 % of Control
CDK1/cyclinB; 25 ug/ml
  Kinase activity, % of Control: 46 % of Control
CDK1/cyclinB; 50 ug/ml
  Kinase activity, % of Control: 18 % of Control
AMPK; 1 ug/ml
  Kinase activity, % of Control: 122 % of Control
AMPK; 5 ug/ml
  Kinase activity, % of Control: 113 % of Control
AMPK; 25 ug/ml
  Kinase activity, % of Control: 90 % of Control
AMPK; 50 ug/ml
  Kinase activity, % of Control: 81 % of Control
CK1γ3; 1 ug/ml
  Kinase activity, % of Control: 98 % of Control
CK1γ3; 5 ug/ml
  Kinase activity, % of Control: 51 % of Control
CK1γ3; 25 ug/ml
  Kinase activity, % of Control: 22 % of Control
CK1γ3; 50 ug/ml
  Kinase activity, % of Control: 15 % of Control
Fes; 1 ug/ml
  Kinase activity, % of Control: 131 % of Control
Fes; 5 ug/ml
  Kinase activity, % of Control: 106 % of Control
Fes; 25 ug/ml
  Kinase activity, % of Control: 102 % of Control
Fes; 50 ug/ml
  Kinase activity, % of Control: 26 % of Control
ZIPK; 1 ug/ml
  Kinase activity, % of Control: 115 % of Control
ZIPK; 5 ug/ml
  Kinase activity, % of Control: 74 % of Control
ZIPK; 25 ug/ml
  Kinase activity, % of Control: 20 % of Control
ZIPK; 50 ug/ml
  Kinase activity, % of Control: 70 % of Control
Syk; 1 ug/ml
  Kinase activity, % of Control: 95 % of Control
Syk; 5 ug/ml
  Kinase activity, % of Control: 60 % of Control
Syk; 25 ug/ml
  Kinase activity, % of Control: 32 % of Control
Syk; 50 ug/ml
  Kinase activity, % of Control: 17 % of Control
DAPK2; 1 ug/ml
  Kinase activity, % of Control: 105 % of Control
DAPK2; 5 ug/ml
  Kinase activity, % of Control: 88 % of Control
DAPK2; 25 ug/ml
  Kinase activity, % of Control: 45 % of Control
DAPK2; 50 ug/ml
  Kinase activity, % of Control: 26 % of Control
CDK5/p35; 1 ug/ml
  Kinase activity, % of Control: 103 % of Control
CDK5/p35; 5 ug/ml
  Kinase activity, % of Control: 102 % of Control
CDK5/p35; 25 ug/ml
  Kinase activity, % of Control: 41 % of Control
CDK5/p35; 50 ug/ml
  Kinase activity, % of Control: 44 % of Control
Pim-2; 1 ug/ml
  Kinase activity, % of Control: 104 % of Control
Pim-2; 5 ug/ml
  Kinase activity, % of Control: 48 % of Control
Pim-2; 25 ug/ml
  Kinase activity, % of Control: 14 % of Control
Pim-2; 50 ug/ml
  Kinase activity, % of Control: 6 % of Control
p70S6K; 1 ug/ml
  Kinase activity, % of Control: 94 % of Control
p70S6K; 5 ug/ml
  Kinase activity, % of Control: 48 % of Control
p70S6K; 25 ug/ml
  Kinase activity, % of Control: 19 % of Control
p70S6K; 50 ug/ml
  Kinase activity, % of Control: 7 % of Control
CK1δ; 5 ug/ml
  Kinase activity, % of Control: 32 % of Control
CK1δ; 25 ug/ml
  Kinase activity, % of Control: 16 % of Control
CK1δ; 50 ug/ml
  Kinase activity, % of Control: 12 % of Control
Fyn; 1 ug/ml
  Kinase activity, % of Control: 104 % of Control
Fyn; 5 ug/ml
  Kinase activity, % of Control: 66 % of Control
Fyn; 25 ug/ml
  Kinase activity, % of Control: 42 % of Control
Fyn; 50 ug/ml
  Kinase activity, % of Control: 18 % of Control
Fer; 1 ug/ml
  Kinase activity, % of Control: 55 % of Control
Fer; 5 ug/ml
  Kinase activity, % of Control: 20 % of Control
Fer; 25 ug/ml
  Kinase activity, % of Control: 10 % of Control
Fer; 50 ug/ml
  Kinase activity, % of Control: 1 % of Control
CK1(y); 1 ug/ml
  Kinase activity, % of Control: 91 % of Control
CK1(y); 5 ug/ml
  Kinase activity, % of Control: 63 % of Control
CK1(y); 25 ug/ml
  Kinase activity, % of Control: 37 % of Control
CK1(y); 50 ug/ml
  Kinase activity, % of Control: 9 % of Control
IRAK1; 1 ug/ml
  Kinase activity, % of Control: 129 % of Control
IRAK1; 5 ug/ml
  Kinase activity, % of Control: 104 % of Control
IRAK1; 50 ug/ml
  Kinase activity, % of Control: 36 % of Control
GSK3β; 1 ug/ml
  Kinase activity, % of Control: 120 % of Control
GSK3β; 5 ug/ml
  Kinase activity, % of Control: 99 % of Control
GSK3β; 25 ug/ml
  Kinase activity, % of Control: 25 % of Control
GSK3β; 50 ug/ml
  Kinase activity, % of Control: 3 % of Control
PhKγ2; 1 ug/ml
  Kinase activity, % of Control: 106 % of Control
PhKγ2; 5 ug/ml
  Kinase activity, % of Control: 60 % of Control
PhKγ2; 25 ug/ml
  Kinase activity, % of Control: 11 % of Control
PhKγ2; 50 ug/ml
  Kinase activity, % of Control: 5 % of Control
cSRC; 1 ug/ml
  Kinase activity, % of Control: 92 % of Control
cSRC; 5 ug/ml
  Kinase activity, % of Control: 50 % of Control
cSRC; 25 ug/ml
  Kinase activity, % of Control: 27 % of Control
cSRC; 50 ug/ml
  Kinase activity, % of Control: 21 % of Control
